From PMC11547840, “The Intestinal Barrier Protective Effect of Indole Aldehyde Derivatives on Acute Toxoplasma gondii Infection” (Molecules, 2024)
Entries after “also recorded” stand apart in the source; their conditions may differ. Like-named read-outs stand apart in the source and are kept apart here.

How the values were obtained:
[1] = tested on: small intestine of mice with T. gondii infection; assay: Small intestine and serum biochemical parameters (GSH, MDA, NO, DAO) of T. gondii-infected mice; assay type: in vivo; conditions: 100 mg/kg oral once a day for 6 days
Excerpt: (§1) For the in vivo study, KM female mice were divided into groups consisting of six animals each and then intraperitoneally injected with 2 × 10^3 tachyzoites. […] On the last day, heart blood samples were collected after anesthesia to separate the serum, and after mice were sacrificed by cervical dislocation, mice were dissected to obtain organs and tissues. The tachyzoites were harvested from mice peritoneal cavities to determine the level of tachyzoite proliferation. The peritoneal fluid was collected twice; the first time, it was centrifuged at 500 rpm for 10 min, then the supernatant was centrifuged at 2500 rpm for 20 min, discarded, and the worm precipitate was collected at the bottom, and mixed with an appropriate amount of physiological saline. A total of 10 μL of T. gondii suspension was mixed with 10 μL of 4% Trypan blue staining solution in a 1.5 mL centrifuge tube.
The GSH was measured according to the method in [58]. The intestine homogenate was mixed with half volume trichloroacetic acid (20%, w/v) and centrifuged at 4000 rpm for 10 min. Then, phosphate buffer (phosphate 0.3 mol/L, pH 7.5) and 5,5-dithio-bis-(2-nitrobenzoic acid) (0.04%, w/v) were added to the separated supernatant and mixed thoroughly. After 5 min at room temperature, the absorbance was measured at 412 nm.
MDA was measured by the standard method with minor modifications. The small intestine homogenate supernatant was mixed with thiobarbituric acid (0.5%, w/v) and heated in boiling water bath for 1 h, then cooled quickly and centrifuged at 6000 rpm for 10 min; the absorbance of pink colored supernatant was measured at 532 nm. Tetraethoxypropane replaced the intestine homogenate in the standard sample.
(§2) The Greiss method was used to determine the NO content in small intestine tissues and cells. The above small intestine tissue homogenate or IEC-6 cell supernatant was centrifuged at 4 °C and 1500 rpm for 15 min, and the absorbance was measured at 540 nm by adding equal amounts of Griess A and B reagents to the supernatant. The standard used in the NO standard curve was sodium nitrite, and the NO content in the samples was calculated by substituting the absorbance values of the samples into the regression equation of the standard curve.
The DAO evaluation experimental method of Xin Y et al. was adopted, in which mouse heart blood was taken from a 1.5 mL centrifuge tube and centrifuged at 4 °C and 3000× g for 10 min, and the upper layer of serum was taken for measurement. Another 1.5 mL tube was taken and 600 μL of phosphate buffer, 20 μL of horseradish peroxidase, 20 μL of dianisidine dihydrochloride hydrochloride, and 20 μL of 1,5-pentanediamine hydrochloride were added. After that, 100 μL of serum samples to be tested was added, mixed well and heated at 37 °C for 18 h. The absorbance was measured at 436 nm. […]. A total of 100 μL of distilled water was used in the blank tube instead of serum, and the standard used in the standard curve was diamine oxidase. The absorbance value of the experimental samples was substituted into the regression equation of the standard curve to calculate the content of DAO in the serum samples.

[2] = Small intestine histology and pathology scoring of T. gondii-infected mice; assay type: in vivo; conditions: 100 mg/kg oral once a day for 6 days
Excerpt: as §1
The histology research includes apparent pathological change score, H&E staining and histopathological scores of tissue, as shown in Table 4 and Table 5. In detail, the obtained small intestine tissues were fixed in formalin solution and embedded in paraffin wax after gradual dehydration with different concentrations of ethanol. The paraffin fast was sectioned to a thickness of 5 μm, rehydrated and stained with hematoxylin and eosin, respectively, and finally permeabilized with xylene and sealed with neutral gum. A light microscope was used to observe and collect pictures, and the degree of damage to the small intestinal tissues was assessed according to Chiu’s six-grade scale.

[3] = tested on: T. gondii; assay: In vivo anti-T. gondii activity, peritoneal tachyzoite count by Trypan Blue; set-up: species or system Toxoplasma gondii; conditions: 100 mg/kg oral once a day for 6 days; for Inhibition Rate: mice peritoneal T. gondii, (untreated group − treated group)/untreated group × 100%; for Number of Tachyzoites: peritoneal cavity of KM female mice, i.p. 2 × 10^3 tachyzoites, Toxo 12.28 ± 0.39
Excerpt: as §1

[4] = tested on: IEC-6 cells with T. gondii infection; assay: NO level of T. gondii-infected IEC-6 cells (Griess); assay type: cell-based; conditions: Griess method, cell supernatant; compared with Toxo group
Experimental: as §2

[5] = tested on: IEC-6 cells; assay: MTT cytotoxicity assay in IEC-6 cells; assay type: cell-based; conditions: Rattus norvegicus, read-out: IC50 in IEC-6 Cells
Experimental: (§3) Anti-T. gondii activity and cytotoxicity of indole derivatives in vitro were evaluated by MTT assay (Solarbio, Beijing, China) using a slightly modified version of the procedure of Shang et al.. IEC-6 cells were seeded onto the 96-well plates (2 × 10^3/well) for 24 h to obtain the full monolayer, and then the host cells were infected with T. gondii (parasite: cell = 3:1) in complete medium. After 24 h, cells were washed to remove any extra parasites and then incubated with different concentrations (20, 200, 500 and 1000 μm) of […]. […] After 24 h of treatment, MTT solution was added directly to the culture wells and then incubated for 4 h at 37 °C. The optical absorbance was measured at a wavelength of 548 nm using a microplate reader (SpectraMax M2, Molecular Devices, Sunnyvale, CA, USA). Giemsa staining was used to observe the changes in cell morphology and the proliferation of T. gondii-infected cells. IEC-6 (1 × 10^5 cells/well) was inoculated into 24-well plates containing round coverslip, and after the cells were attached to the wall, T. gondii (3 × 10^5 cells/well) was added to infect the cells for 3 h. After the culture medium was discarded, PBS was added to remove the uninvaded tachyzoites. […] After discarding the supernatant, the cells were washed with PBS and completely aspirated, and then fixed by adding 0.5 mL of methanol for 3 min. Giemsa staining solution was added and shaken slightly to make the staining uniform. Coverslips were rinsed with distilled water to replace the staining solution, and finally, the slices were sealed with neutral gum and air-dried.

[6] = tested on: T. gondii; assay: Giemsa staining: cell infection rate and intracellular tachyzoites in IEC-6 cells; assay type: cell-based, Toxoplasma gondii; conditions: IEC-6 cells infected 3 h, drug 12 h at the IC50 value of the cells; for cell infection rate: Toxo group 49.2%; for number of intracellular tachyzoites: Toxo group 254
Experimental: as §3

[7] = tested on: T. gondii; assay: MTT anti-T. gondii activity in T. gondii-infected IEC-6 cells; assay type: cell-based, Toxoplasma gondii; conditions: for Selective Index (SI): IC50 in IEC-6 cells/IC50 in T. gondii-infected IEC-6 cells; for IC50: Toxoplasma gondii, read-out: IC50 in T. gondii
Experimental: as §3

[8] = Small intestine function of T. gondii-infected mice (weight, food utilization, carmine excretion); assay type: in vivo; conditions: 100 mg/kg oral once a day for 6 days
Experimental: On the last day, heart blood samples were collected after anesthesia to separate the serum, and after mice were sacrificed by cervical dislocation, mice were dissected to obtain organs and tissues. The tachyzoites were harvested from mice peritoneal cavities to determine the level of tachyzoite proliferation. The peritoneal fluid was collected twice; the first time, it was centrifuged at 500 rpm for 10 min, then the supernatant was centrifuged at 2500 rpm for 20 min, discarded, and the worm precipitate was collected at the bottom, and mixed with an appropriate amount of physiological saline. […] Mouse food intake and body weight were recorded daily for six days during the experiment and were used to record growth performance data. At the end of the experiment, body weight gain, food intake and food utilization of mice were calculated as Equation (1). […] A solution containing 3% carmine dye and 0.5% carboxymethyl cellulose was prepared. On the fifth day of T. gondii infection, each mouse was transferred to a separate cage, with the bottom of the cage completely covered with white paper to facilitate the detection of cochineal in the feces after red feces were eliminated. […] During the experimental period, the mice were free to move around, and eat and drink freely without any external interference, as described.

[9] = MTT, concentration required to reduce IEC-6 cell growth by 50%, 24 h treatment
[10] = MTT, concentration required to reduce T. gondii-infected IEC-6 cell growth by 50%, 24 h treatment

SMILES | MDA level in small intestine tissue [1] | NO level in small intestine tissue [1] | intestinal barrier damage induced by T. gondii infection (histology, H&E) [2] | Inhibition Rate [3] [%] | Number of Tachyzoites [3] | NO level of IEC-6 cells with T. gondii infection [4] | IC50 [5, 9] [µM] | cell infection rate [6] [%] | number of intracellular tachyzoites [6] | Selective Index (SI) [7] | IC50 [7, 10] [µM] | food utilization efficiency of mice with T. gondii infection [8] | weight increment of mice with T. gondii infection [8] | IC50 ([5]; IEC-6, 24 h) [µM] | IC50 ([7]; IEC-6, 24 h) [µM] | DAO level in serum [1] | MDA level in small intestine tissue ([1]; 100 mg/kg) | NO level in small intestine tissue ([1]; 100 mg/kg) | GSH level in small intestine tissue [1] | apparent pathological damage score (intestine apparent pathology scoring) [2]
Cn1c(-c2ccccc2)c(C=O)c2ccccc21 [A9, 1-Methyl-2-phenylindole-3-carbaldehyde] | effective inhibition of the MDA increase | mitigate the elevated levels | demonstrate potential in ameliorating intestinal barrier damage | 28.1 | 8.83 ± 0.39 ×10^6 | lowest NO release levels; also recorded: significantly decreased the release of intracellular nitric oxide | 408.4 ± 3.5 | 18.0 | more effective than Spy | 1.1 | 366 ± 8.8 | enhanced food utilization efficiency | did not affect this parameter, except for derivative A9 |  |  |  |  |  |  | 
Clc1cc2ccccc2[nH]1 [A7, 2-Chloro-1H-indole] |  |  |  |  |  |  | 283.7 ± 2.6 |  |  | 1.0 | 287 ± 6.1 |  |  |  |  |  |  |  |  | 
COC(=O)c1cn(C=O)c2ccccc12 [A6, 1-formyl-1H-indole-3-carboxylic acid methyl ester] |  |  |  |  |  |  |  |  |  | 0.9 |  |  |  | 633 ± 9.8 | 742 ± 10.5 |  |  |  |  | 
O=Cc1c(Cl)[nH]c2ccccc12 [A5, 2-Chloro-1H-indole-3-carbaldehyde] | effective inhibition of the MDA increase | mitigate the elevated levels | demonstrate potential in ameliorating intestinal barrier damage | 22.2 | 9.56 ± 0.92 ×10^6 | significantly decreased the release of intracellular nitric oxide | 602 ± 9.9 | 20.3 | more effective than Spy | 1.1 | 564 ± 6.9 |  |  |  |  | mitigate the elevated levels |  |  |  | 
c1ccc2[nH]ccc2c1 [Indole, indole] |  |  |  |  | 10.33 ± 2.84 ×10^6 |  |  | 32.2 |  | 1.0 |  |  |  | 939.6 ± 5.4 | 921.2 ± 5 |  |  |  |  | 
O=Cc1c[nH]c2ncc(Br)cc12 [A4, 5-bromo-1H-pyrrolo[2,3-b] pyridine-3-carbaldehyde] |  |  |  |  |  |  | 960.3 ± 2.5 |  |  | 1.0 | 995.7 ± 4.9 |  |  |  |  |  |  |  |  | 
N#CCc1cn(C=O)c2ccccc12 [A1, 1-Formyl-1H-indole-3-acetonitrile] | surpassed that of the positive control drug, Spy | mitigate the elevated levels | demonstrate potential in ameliorating intestinal barrier damage |  | 8.17 ± 0.84 ×10^6 | significantly decreased the release of intracellular nitric oxide | 417 | 26.0 |  | 1.2 | 342 |  |  |  |  | mitigate the elevated levels |  |  |  | 
Cn1cc(C=O)c2ccccc21 [A8, 1-Methyl-indole-3-carbaldehyde] |  |  | demonstrate potential in ameliorating intestinal barrier damage |  | 8.92 ± 0.51 ×10^6 | significantly decreased the release of intracellular nitric oxide | 650 ± 7.9 | 20.5 | more effective than Spy | 1.1 | 571 ± 7.4 |  |  |  |  | mitigate the elevated levels | effective inhibition of the MDA increase; also recorded: slightly outperformed A9 | mitigate the elevated levels; also recorded: slightly outperformed A9 |  | 
O=Cc1c[nH]c2ccccc12 [A3, Indole-3-carboxaldehyde] | effective inhibition of the MDA increase | less pronounced compared to the other derivatives | most effective, surpassing the control drug Spy in efficacy | 33.3 | 8.22 ± 1.49 ×10^6 | lowest NO release levels; also recorded: significantly decreased the release of intracellular nitric oxide | 869.2 ± 4 | 15.0 | more effective than Spy | 1.3 | 675 ± 8.3 |  |  |  |  | more significant |  |  | significantly higher than that observed with the positive control drug, Spy | significantly lower apparent pathological damage score compared to Spy
NCCc1cn(C=O)c2ccccc12 [A2, 1-Formyl-1H-indole-3-ethanamine] |  |  |  |  |  |  |  |  |  |  |  |  |  | > 1000 | > 1000 |  |  |  |  | 
